Experimental data published in PubChem BioAssay AID2060509 (Molecular Pharmacology Branch, DTP, NCI, 2025).

System: 485176-168-R4-J1-PDC spheroids with HUVEC/MSC, viability
Assay: Anticancer human tumor 485176-168-R4-J1-PDC patient-derived pancreatic adenocarcinoma cell line growth inhibition [GQUAD]
Conditions: for IC50: curve of first compound; for viability, T/C: stronger effect = lower value
How it was run: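 Viability of tumor cells grown as complex spheroids with endothelial and stromal cells, exposed to drug combinations. Top concentration at or near clinical Cmax (else 10 microM), diluted in half-log increments.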

[1] = second compound 0.0316 µM, first compound 0.0316 µM
[2] = second compound 0.0316 µM, first compound 0.1 µM
[3] = second compound 0.0316 µM, first compound 0.316 µM
[4] = second compound 0.0316 µM, first compound 1 µM
[5] = second compound 0.0316 µM, first compound 3.16 µM
[6] = second compound 0.0316 µM, first compound 10 µM
[7] = second compound 0.1 µM, first compound 0.0316 µM
[8] = second compound 0.1 µM, first compound 0.1 µM
[9] = second compound 0.1 µM, first compound 0.316 µM
[10] = second compound 0.1 µM, first compound 1 µM
[11] = second compound 0.1 µM, first compound 3.16 µM
[12] = second compound 0.1 µM, first compound 10 µM
[13] = second compound 0.316 µM, first compound 0.0316 µM
[14] = second compound 0.316 µM, first compound 0.1 µM
[15] = second compound 0.316 µM, first compound 0.316 µM
[16] = second compound 0.316 µM, first compound 1 µM
[17] = second compound 0.316 µM, first compound 3.16 µM
[18] = second compound 0.316 µM, first compound 10 µM
[19] = second compound 1 µM, first compound 0.0316 µM
[20] = second compound 1 µM, first compound 0.1 µM
[21] = second compound 1 µM, first compound 0.316 µM
[22] = second compound 1 µM, first compound 1 µM
[23] = second compound 1 µM, first compound 3.16 µM
[24] = second compound 1 µM, first compound 10 µM
[25] = second compound 3.16 µM, first compound 0.0316 µM
[26] = second compound 3.16 µM, first compound 0.1 µM
[27] = second compound 3.16 µM, first compound 0.316 µM
[28] = second compound 3.16 µM, first compound 1 µM
[29] = second compound 3.16 µM, first compound 3.16 µM
[30] = second compound 3.16 µM, first compound 10 µM
[31] = second compound 10 µM, first compound 0.0316 µM
[32] = second compound 10 µM, first compound 0.1 µM
[33] = second compound 10 µM, first compound 0.316 µM
[34] = second compound 10 µM, first compound 1 µM
[35] = second compound 10 µM, first compound 3.16 µM
[36] = second compound 10 µM, first compound 10 µM
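Note: spheroids exposed to compounds for seven days before readout.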
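Throughout, for viability, T/C: percent viability relative to DMSO vehicle control wells as 100%.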

Compound: O=C(c1cc(Cc2n[nH]c(=O)c3ccccc23)ccc1F)N1CCN(C(=O)C2CC2)CC1 + Cc1cnc(CNC(=O)c2c(=O)c3ccc(N4CCCN(C)CC4)nc3n3c2sc2ccccc23)cn1
- IC50 (second compound 0.0316 µM): > 10000 nM
- IC50 (second compound 0.1 µM): > 10000 nM
- IC50 (second compound 0.316 µM): > 10000 nM
- IC50 (second compound 1 µM): < 31.6 nM
- IC50 (second compound 3.16 µM): < 31.6 nM
- IC50 (second compound 10 µM): < 31.6 nM
- viability, T/C [1]: 92.7%
- viability, T/C [2]: 74.2%
- viability, T/C [3]: 85.1%
- viability, T/C [4]: 71%
- viability, T/C [5]: 68.4%
- viability, T/C [6]: 75.7%
- viability, T/C [7]: 63.5%
- viability, T/C [8]: 75.8%
- viability, T/C [9]: 63.4%
- viability, T/C [10]: 64.4%
- viability, T/C [11]: 75.8%
- viability, T/C [12]: 59.2%
- viability, T/C [13]: 57.2%
- viability, T/C [14]: 52.8%
- viability, T/C [15]: 60.7%
- viability, T/C [16]: 59.2%
- viability, T/C [17]: 54.2%
- viability, T/C [18]: 45.6%
- viability, T/C [19]: 44.8%
- viability, T/C [20]: 43.7%
- viability, T/C [21]: 52.6%
- viability, T/C [22]: 42.6%
- viability, T/C [23]: 48.4%
- viability, T/C [24]: 42.6%
- viability, T/C [25]: 47.4%
- viability, T/C [26]: 43.7%
- viability, T/C [27]: 38.4%
- viability, T/C [28]: 38.6%
- viability, T/C [29]: 41.6%
- viability, T/C [30]: 35.8%
- viability, T/C [31]: 43.5%
- viability, T/C [32]: 39.7%
- viability, T/C [33]: 42.1%
- viability, T/C [34]: 38.4%
- viability, T/C [35]: 35.6%
- viability, T/C [36]: 35.4%

Compound: CC(=O)O[C@H]1C(=O)[C@@]2(C)[C@H]([C@H](OC(=O)c3ccccc3)[C@]3(O)C[C@H](OC(=O)[C@H](O)[C@@H](NC(=O)c4ccccc4)c4ccccc4)C(C)=C1C3(C)C)[C@]1(OC(C)=O)CO[C@@H]1C[C@@H]2O + CN(C)c1ccc(Nc2c3ccc(NC(=O)CCN4CCCC4)cc3nc3cc(NC(=O)CCN4CCCC4)ccc23)cc1
- IC50 (second compound 0.0316 µM): < 31.6 nM
- IC50 (second compound 0.1 µM): < 31.6 nM
- IC50 (second compound 0.316 µM): < 31.6 nM
- IC50 (second compound 1 µM): < 31.6 nM
- IC50 (second compound 3.16 µM): < 31.6 nM
- IC50 (second compound 10 µM): < 31.6 nM
- viability, T/C [1]: 34.3%
- viability, T/C [2]: 14.3%
- viability, T/C [3]: 14.3%
- viability, T/C [4]: 11.6%
- viability, T/C [5]: 11%
- viability, T/C [6]: 14.1%
- viability, T/C [7]: 31.9%
- viability, T/C [8]: 15%
- viability, T/C [9]: 14.1%
- viability, T/C [10]: 14.9%
- viability, T/C [11]: 12%
- viability, T/C [12]: 11.3%
- viability, T/C [13]: 33.3%
- viability, T/C [14]: 15.6%
- viability, T/C [15]: 12.9%
- viability, T/C [16]: 13.7%
- viability, T/C [17]: 11.5%
- viability, T/C [18]: 10.9%
- viability, T/C [19]: 31%
- viability, T/C [20]: 13.3%
- viability, T/C [21]: 12.2%
- viability, T/C [22]: 14%
- viability, T/C [23]: 11.5%
- viability, T/C [24]: 9.76%
- viability, T/C [25]: 36.9%
- viability, T/C [26]: 11.3%
- viability, T/C [27]: 16.1%
- viability, T/C [28]: 13.6%
- viability, T/C [29]: 12.5%
- viability, T/C [30]: 11.3%
- viability, T/C [31]: 28.3%
- viability, T/C [32]: 12.4%
- viability, T/C [33]: 13.1%
- viability, T/C [34]: 11.5%
- viability, T/C [35]: 10.6%
- viability, T/C [36]: 12%

Compound: C=CCn1c(=O)c2cnc(Nc3ccc(N4CCN(C)CC4)cc3)nc2n1-c1cccc(C(C)(C)O)n1 + Cc1cnc(CNC(=O)c2c(=O)c3ccc(N4CCCN(C)CC4)nc3n3c2sc2ccccc23)cn1
- IC50 (second compound 0.0316 µM): 233 nM
- IC50 (second compound 0.1 µM): 165 nM
- IC50 (second compound 0.316 µM): 123 nM
- IC50 (second compound 1 µM): 36.5 nM
- IC50 (second compound 3.16 µM): < 31.6 nM
- IC50 (second compound 10 µM): < 31.6 nM
- viability, T/C [1]: 81.7%
- viability, T/C [2]: 64.8%
- viability, T/C [3]: 47.2%
- viability, T/C [4]: 11.5%
- viability, T/C [5]: 7.79%
- viability, T/C [6]: 3.94%
- viability, T/C [7]: 69.3%
- viability, T/C [8]: 70.4%
- viability, T/C [9]: 24.1%
- viability, T/C [10]: 10.6%
- viability, T/C [11]: 6.45%
- viability, T/C [12]: 3.77%
- viability, T/C [13]: 64%
- viability, T/C [14]: 55.9%
- viability, T/C [15]: 25%
- viability, T/C [16]: 9.59%
- viability, T/C [17]: 6.42%
- viability, T/C [18]: 3.31%
- viability, T/C [19]: 52%
- viability, T/C [20]: 36.4%
- viability, T/C [21]: 22.1%
- viability, T/C [22]: 10.2%
- viability, T/C [23]: 5.94%
- viability, T/C [24]: 4.18%
- viability, T/C [25]: 47.6%
- viability, T/C [26]: 40.1%
- viability, T/C [27]: 18.2%
- viability, T/C [28]: 9.87%
- viability, T/C [29]: 4.56%
- viability, T/C [30]: 5.42%
- viability, T/C [31]: 34.4%
- viability, T/C [32]: 37.5%
- viability, T/C [33]: 24.6%
- viability, T/C [34]: 10.6%
- viability, T/C [35]: 0.49%
- viability, T/C [36]: 0.25%

Compound: O=c1[nH]cc(F)c(=O)[nH]1 + CN(C)c1ccc(Nc2c3ccc(NC(=O)CCN4CCCC4)cc3nc3cc(NC(=O)CCN4CCCC4)ccc23)cc1
- IC50 (second compound 0.0316 µM): > 10000 nM
- IC50 (second compound 0.1 µM): 2630 nM
- IC50 (second compound 0.316 µM): > 10000 nM
- IC50 (second compound 1 µM): > 10000 nM
- IC50 (second compound 3.16 µM): > 10000 nM
- IC50 (second compound 10 µM): 932 nM
- viability, T/C [1]: 100%
- viability, T/C [2]: 105%
- viability, T/C [3]: 78.8%
- viability, T/C [4]: 61.8%
- viability, T/C [5]: 53.6%
- viability, T/C [6]: 53.6%
- viability, T/C [7]: 102%
- viability, T/C [8]: 87.7%
- viability, T/C [9]: 88.8%
- viability, T/C [10]: 56.2%
- viability, T/C [11]: 46.3%
- viability, T/C [12]: 51%
- viability, T/C [13]: 97.3%
- viability, T/C [14]: 91.5%
- viability, T/C [15]: 83.3%
- viability, T/C [16]: 52%
- viability, T/C [17]: 66.1%
- viability, T/C [18]: 57.2%
- viability, T/C [19]: 94.4%
- viability, T/C [20]: 106%
- viability, T/C [21]: 71.4%
- viability, T/C [22]: 56.1%
- viability, T/C [23]: 52%
- viability, T/C [24]: 53.2%
- viability, T/C [25]: 90.8%
- viability, T/C [26]: 94.1%
- viability, T/C [27]: 73.9%
- viability, T/C [28]: 59.6%
- viability, T/C [29]: 61.8%
- viability, T/C [30]: 47.2%
- viability, T/C [31]: 84.9%
- viability, T/C [32]: 80.2%
- viability, T/C [33]: 59.9%
- viability, T/C [34]: 51.4%
- viability, T/C [35]: 46.4%
- viability, T/C [36]: 45.5%

Compound: O=C(NO)c1cnc(N2CCN(S(=O)(=O)c3ccc4ccccc4c3)CC2)nc1 + CN(C)c1ccc(Nc2c3ccc(NC(=O)CCN4CCCC4)cc3nc3cc(NC(=O)CCN4CCCC4)ccc23)cc1
- IC50 (second compound 0.0316 µM): 492 nM
- IC50 (second compound 0.1 µM): 472 nM
- IC50 (second compound 0.316 µM): 506 nM
- IC50 (second compound 1 µM): 455 nM
- IC50 (second compound 3.16 µM): 538 nM
- IC50 (second compound 10 µM): 377 nM
- viability, T/C [1]: 92.8%
- viability, T/C [2]: 84.5%
- viability, T/C [3]: 74.8%
- viability, T/C [4]: 10.4%
- viability, T/C [5]: 0.23%
- viability, T/C [6]: 0.27%
- viability, T/C [7]: 85.5%
- viability, T/C [8]: 92.1%
- viability, T/C [9]: 70.8%
- viability, T/C [10]: 10.7%
- viability, T/C [11]: 0.21%
- viability, T/C [12]: 0.2%
- viability, T/C [13]: 112%
- viability, T/C [14]: 85.6%
- viability, T/C [15]: 78.5%
- viability, T/C [16]: 9.79%
- viability, T/C [17]: 0.19%
- viability, T/C [18]: 0.17%
- viability, T/C [19]: 114%
- viability, T/C [20]: 88.8%
- viability, T/C [21]: 70.9%
- viability, T/C [22]: 12.5%
- viability, T/C [23]: 0.21%
- viability, T/C [24]: 0.2%
- viability, T/C [25]: 91.2%
- viability, T/C [26]: 98.4%
- viability, T/C [27]: 84.5%
- viability, T/C [28]: 9.67%
- viability, T/C [29]: 0.25%
- viability, T/C [30]: 0.2%
- viability, T/C [31]: 83.2%
- viability, T/C [32]: 73.6%
- viability, T/C [33]: 57.7%
- viability, T/C [34]: 12.3%
- viability, T/C [35]: 0.25%
- viability, T/C [36]: 0.22%
